Like-named read-outs stand apart in the source and are kept apart here.
Experiments:
glucocorticoid receptor [1] = target: T1, glucocorticoid receptor (Homo sapiens, UniProt P04150); test: Relative binding affinity for the glucocorticoid receptor (GCR/GR); details: GRs were calculated from RBAs; read-out: GR Est. IC50
T1 sequence (P04150 1-777): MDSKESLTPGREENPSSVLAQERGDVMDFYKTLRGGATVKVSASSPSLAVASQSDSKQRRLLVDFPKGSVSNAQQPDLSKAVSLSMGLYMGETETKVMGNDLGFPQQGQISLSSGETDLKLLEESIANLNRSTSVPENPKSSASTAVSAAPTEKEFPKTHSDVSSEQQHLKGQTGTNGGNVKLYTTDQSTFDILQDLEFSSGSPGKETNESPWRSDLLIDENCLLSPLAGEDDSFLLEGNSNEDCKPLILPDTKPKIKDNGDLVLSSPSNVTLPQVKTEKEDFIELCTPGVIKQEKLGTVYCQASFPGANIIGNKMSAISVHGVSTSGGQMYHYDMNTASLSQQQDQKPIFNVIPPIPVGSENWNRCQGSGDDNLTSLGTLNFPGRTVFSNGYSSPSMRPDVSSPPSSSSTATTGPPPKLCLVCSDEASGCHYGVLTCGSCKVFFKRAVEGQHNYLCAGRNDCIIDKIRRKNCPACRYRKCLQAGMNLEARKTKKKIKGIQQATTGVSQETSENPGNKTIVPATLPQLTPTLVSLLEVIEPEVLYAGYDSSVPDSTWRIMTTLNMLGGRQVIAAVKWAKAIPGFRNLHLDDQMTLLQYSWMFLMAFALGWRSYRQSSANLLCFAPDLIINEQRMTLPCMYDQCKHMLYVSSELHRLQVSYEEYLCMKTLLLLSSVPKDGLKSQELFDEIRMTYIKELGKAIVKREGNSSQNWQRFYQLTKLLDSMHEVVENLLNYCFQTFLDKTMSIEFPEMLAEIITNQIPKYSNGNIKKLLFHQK

transcortin (CBG) = target: T2, transcortin (CBG) (Homo sapiens, UniProt P08185); test: Binding of corticosteroids to transcortin: 3H-cortisol competition in charcoal-treated diluted plasma
T2 construct: from tissue; host or cells: plasma from venous blood of healthy volunteers, charcoal-treated, diluted 100-fold
T2 sequence (P08185 23-405): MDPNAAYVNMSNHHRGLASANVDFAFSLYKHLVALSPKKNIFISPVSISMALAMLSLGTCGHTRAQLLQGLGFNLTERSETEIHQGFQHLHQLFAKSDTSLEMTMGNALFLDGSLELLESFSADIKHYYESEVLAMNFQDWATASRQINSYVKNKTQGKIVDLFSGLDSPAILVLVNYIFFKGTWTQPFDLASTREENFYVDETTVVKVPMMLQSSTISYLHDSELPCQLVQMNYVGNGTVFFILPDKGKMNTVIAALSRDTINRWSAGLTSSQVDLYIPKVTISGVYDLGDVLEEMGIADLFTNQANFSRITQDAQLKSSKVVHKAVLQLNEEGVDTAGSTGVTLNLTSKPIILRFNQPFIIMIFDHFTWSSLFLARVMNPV
Experimental: Experimental procedure: Venous blood was collected from healthy volunteers into heparin-containing tubes (5 Us/100 ml serum) and cells were separated from plasma by centrifugation (1500 g for 15 min). […] Charcoal-treated plasma was diluted 100-fold with binding buffer (10 mM Tris-HCl; 2 mM DTT (dithiotreitol); 1.5 mM EDTA; 0.02 M Na2MoO4; 10% Glycerol; pH 7.4) and was stored aliquoted at −80° C. […] The assay ingredients were mixed and the tubes were incubated for 1 hour on ice. At the end of the incubation, 0.2 ml of charcoal suspension (0.5% Norit A and 0.05% BSA) was added to each tube. The tubes were briefly agitated and incubated for an additional 10 min at 0° C. They were then centrifuged for 10 min at 15 000 g, and the same aliquots from the clear supernatants were quantitatively decanted into counting vials and combined with 3 ml of toluene-based scintillation fluid. […] Specific binding and IC50-values were calculated.

[2] = system: forearms of human volunteers; test: Human vasoconstriction (blanching) testing; assay type: in vivo; parameters: key to Vasoconstriction activity (total score of 4 tests): sum of 4 tests, each 0 = normal skin to 4 = very intense pallor
Experimental: Solutions of LE, HC and PRN (0.1 or 1 mM) alone, or mixtures of LE and HC (0.1+0.1 mM, or 1+1 mM), or LE and PRN (0.1+0.1 mM, or 1+1 mM) were prepared with a vehicle containing absolute ethanol and propylene glycol (9:1). […] After evaporation of ethanol (20 min), the films were applied to the forearms of human volunteers for 4 hours. Subsequently, the vasoconstriction reaction was read and judged by the appearance of pallor at various time intervals after the removal of the discs and films. The grading scale was as follows: 0, normal skin; 1, slight pallor; 2, pallor with at least two corners outlined; 3, even pallor with a clear outlined of the application sites; 4, very intense pallor. Due to the relatively high variations in response between the volunteers, a total score of 4 tests at each time point was taken for the activity evaluation.

glucocorticoid receptor [3] = target: T1, glucocorticoid receptor; details: cited from earlier work
[4] = anti-inflammatory activity, LE vs hydrocortisone; cited from earlier work
[5] = logP reported in literature; cited from earlier work

## CCOC(=O)O[C@]1(C(=O)OCCl)CC[C@H]2[C@@H]3CCC4=CC(=O)C=C[C@]4(C)[C@H]3[C@@H](O)C[C@@]21C [Loteprednol etabonate, chloromethyl 17α-ethoxycarbonyloxy-11β-hydroxyandrosta-1,4-dien-3-one-17β-carboxylate]
Glucocorticoid receptor [1]
  IC50: 0.004 µM
Transcortin (CBG); 3 nM 3H-cortisol, 1 hour on ice, plasma diluted 100-fold, read-out: IC50-values (nM) average ± SEM (n)
  IC50: 272 ± 27 nM
Transcortin (CBG); estimated, unpublished results Bodor, Kurucz 2006, read-out: CBG Est. IC50
  IC50: 270 nM
[2]; 0.1 mM, 2 hr after removal, 4 h application
  Vasoconstriction activity (total score of 4 tests): 2
[2]; 0.1 mM, 4 hr after removal
  Vasoconstriction activity (total score of 4 tests): 3
[2]; 0.1 mM, 6 hr after removal
  Vasoconstriction activity (total score of 4 tests): 5
[2]; 0.1 mM, 8 hr after removal
  Vasoconstriction activity (total score of 4 tests): 5
[2]; 0.1 mM, 10 hr after removal
  Vasoconstriction activity (total score of 4 tests): 3
[2]; 0.1 mM, 16 hr after removal
  Vasoconstriction activity (total score of 4 tests): 1
[2]; 0.1 mM, 18 hr after removal
  Vasoconstriction activity (total score of 4 tests): 1
[2]; 0.1 mM, 24 hr after removal
  Vasoconstriction activity (total score of 4 tests): 1
[2]; 1 mM, 2 hr after removal, 4 h application
  Vasoconstriction activity (total score of 4 tests): 6
[2]; 1 mM, 4 hr after removal
  Vasoconstriction activity (total score of 4 tests): 7
[2]; 1 mM, 6 hr after removal
  Vasoconstriction activity (total score of 4 tests): 8
[2]; 1 mM, 8 hr after removal
  Vasoconstriction activity (total score of 4 tests): 8
[2]; 1 mM, 10 hr after removal
  Vasoconstriction activity (total score of 4 tests): 9
[2]; 1 mM, 16 hr after removal
  Vasoconstriction activity (total score of 4 tests): 6
[2]; 1 mM, 18 hr after removal
  Vasoconstriction activity (total score of 4 tests): 5
[2]; 1 mM, 24 hr after removal
  Vasoconstriction activity (total score of 4 tests): 2
[2]; by itself, concentration range 0.1 to 1 mM, human skin
  Vasoconstriction activity alone (in words): good vasoconstriction activity
[2]; co-administration of 0.1 mM HC or PRN
  Increase of vasoconstriction activity of LE by addition of the same amount of HC or PRN: 60-80%
[2]; co-administration of 1 mM HC or PRN
  Increase of vasoconstriction activity of LE by addition of the same amount of HC or PRN: 60-75%
Glucocorticoid receptor [3]; Druzgala et al. 1991, [3H]-triamcinolone acetonide tracer, 10^−5M cortienic acid as competitor
  Intrinsic activity in in vitro receptor binding studies (in words): intrinsically active
Glucocorticoid receptor [3]; relative to dexamethasone = 100, average of all values if multiple available
  rBA (relative receptor binding affinity): 150
[4]
  Activity relative to hydrocortisone: approximately 20 times
[5]
  logP: 3.03
